US20060257875A1, “Affinity screening using "one-bead-one-compound" libraries” (Carlsberg A/S, priority 2003, published 2006)
“And” between values parts separate entries of the source, which are not always exact repeats. Equal entries are not always repeated. “Also recorded” adds a separate entry of the source.

Assays:
[1] = test system: phenylephrine (PE)-treated myocyte proteins; assay: Solid phase screening of Library 1 with labeled myocyte proteins; bound proteins identified by on-bead digest and peptide mass fingerprinting; format: binding, neonatal Wistar rats; details: Library 1 ligand on PEGA4000 bead; Phenylephrine Treated (Hyperthrophic) Myocytes
Procedure: Myocytes were prepared from 1 to 5 day old neonatal Wistar rats (University of Copenhagen) according to literature procedure described in Busk et al., 2002, Cardiovasc. Res., 56: 64-75 and plated into eight P10 culture plates at 6 million cells/plate.
Protein was extracted from myocytes prepared as described above for Example 9, using a new procedure modified from existing protocols, primarily: Arrott, et al., 1998, Anal Biochem. 258: 1-18. The media was removed from plates and adhered cells were treated for 10 minutes with ice cold phosphate buffer (0.25 mL, 10 mM, pH 7.5, augmented with 0.15 M NaCl 60 mM Benzamidine HCl, 5 mM EDTA, 10 μg/n E-64, 10 μg/mL Leu-peptin, 10 μg/mL Pepstatin A, and 1 mM PMSF). The cells were scraped off the plates and then lysed (on ice) in a sonicator (2×) using 10 seconds off/10 seconds on cycles.
The resulting suspension was augmented with CHAPS, DTT, and urea to a final concentration of CHAPS (1% w/v), DTT (5 mM), and urea (8 M). After 10-15 minutes on ice, the solution was centrifuged for 10 minutes at 15,000 rpm at 4° C. The supernatant was removed and protein content quantified using the NanoOrange Protein test (Molecular Probes, Eugene, Oreg.): Total protein recovered: 70.5 μg for PE-treated cells and 60 μg for basal cells.
Fluorescent dye Oregon Green 514 (OR) (Molecular Probes) was used to label the healthy/basal cells while Rhodamine Red (RR) (Molecular Probes) was used to label the PE-treated cells. The labeling procedures were carried out according to the manufacturer's protocol. The protein solutions (0.25 mL, 50.4 μg for PE cells and 0.25 mL, 42.8 μg for basal cells) were dialyzed against a solution of 10 mM phosphate buffer, 0.15 M NaCl, pH 7.5 and then 1 M NaHCO3 (0.025 mL) added to a final pH of 8.5. 10 μL of dye in dry DMF (10 mg/mL) was added and the sample stirred at room temperature for 2 hours. The protein solution was dialyzed extensively against 10 mM phosphate buffer, 0.15 M NaCl, pH 7.5, to remove excess dye.
Ligand library 1 (200 mg), prepared as described for Example 5, was transferred to a syringe fitted with a stop-valve and the ligand-beads were washed for 10 minutes (3×) with 10 mM phosphate buffer, pH 6.8, supplemented with 0.15 M NaCl, 1 mM Ca^2+, 1 mM Zn^2+, 1 mM Mn^2+, 1 mM Cu^2+, and 1 mM Mg^2+ (3 mL). The ligand-beads were treated with a 1% BSA solution for 30 minutes, then washed with buffer (1×). A mixture of labeled myocyte proteins, including both PE-induced protein (138 μL, 40 μg) and basal protein (167 μL, 40 μg) obtained as described above for Example 11, was prepared in 1.2 mL buffer, and added to the ligand library in the syringe. The proteins and ligand library were incubated at room temperature for 16 hours. The library was then washed with buffer for 5 minutes then with water for 3×5 minutes. The library was examined under a fluorescence microscope and brightly fluorescent red, green, and yellow beads (yellow indicative of both dyes red and green binding; the majority of the beads) were present, as well as unlabelled beads. The fluorescent beads were separated and retained for analysis.
The fluorescent ligand library beads containing bound protein obtained as described in Example 15 were sorted using a COPAS (250) NF Bead Sorter (Union Biometrica, Somerville, Mass.) equipped with a single flourescence emission. Beads emitting fluorescence of only one color contain proteins from one physical state, e.g. proteins expressed only in the PE-induced hypertrophic state (red) or proteins expressed only in the basal state (green). Since the instrument measures one fluorescence emission at a time, beads containing one type of color fluorescence were first sorted and then beads were resorted for emissions from the other fluorescence color. The library was first sorted such that all beads containing significant green fluorescence, basal proteins from healthy myocytes, were isolated. […]

[2] = test system: cardiac myocytes; assay: Inhibition of DNA synthesis (cardiac hypertrophy) in cardiac myocytes treated with peptides (FIG. 3); format: cell-based
Source text: The columns indicate average induction of DNA synthesis in cardiac myocytes treated with peptides. The Y-axis indicates fold induction (control basal=100%).
The importance of six ligands in cardiac hypertrophy was investigated by examining the effect of the ligand on the increase in protein synthesis (meaured by increase in DNA synthesis) in myocytes that had been treated with serum to induce a hypertrophic state (FIG. 3).

[3] = test system: normal porcine macrophage proteins; assay: Solid phase screening of small molecule Library 7 with labeled viral and porcine macrophage proteins; format: binding; details: Normal Macrophages
Source text: (§1) Alternatively, the fluorescent ligand library beads containing bound protein obtained as described in Examples 47, 48, 49 and 51 were sorted using a COPAS (250) NF Bead Sorter (Union Biometrica, Somerville, Mass.) equipped with a dual detector. Both the cyanine dyes used in the labeling procedure, namely Cy 2 (emission wavelength—510 nm) and Cy 3 (emission wavelength—570 nm) were simultaneously excited at […] The bead selection window was then set-up such that all beads containing significant green fluorescence and no red flourescence were isolated. The unselected beads were then resorted to obtain beads containing red fluorescence (proteins from basal cells). The selected red and green fluorescent beads were then sorted into brightly and less brightly fluorescent beads, to give an indication of either the strength of binding of the ligand to a particular protein or the amount of protein present in the sample binding to the ligand.
(§2) Ligands can be completely or partially identified by MALDI_TOF-MS whether or not the library is synthesized by ladder synthesis. […] The ligand is cleaved from the resin bead depending on the type of linker used. […] Peptide fragments (ladder synthesis) or single compounds were extracted from the bead with 0.5 AL CH3CN, then 0.5 FL 70% CH3CN/H2O. […] In the case of the acid labile Rink linker (Library 7), the compound was released from the bead by treatment with 95% TFA or 30 min. The TFA solution was evaporated and the cleaved compounds were extracted in 2 μL 70% acetonitrile+0.1% TFA. This mixture was then transferred to a stainless steel disc to which 0.4 μL of CHC matrix+1.0% TFA was added. An additional 0.4 μL of CHC matrix+1.0% TFA was added to complete sample application.
(§3) A typical analysis employed 100-300 laser shots. […] A typical analysis employed 200-300 laser shots. The possible identity of the ligand was determined (Narrowed down) by comparing the recorded mass of the ligand with the masses of all possible compounds formed in the library. This comparison was carried out using an in-house created computer program The precise identity of the ligand can then be confirmed using MS fragmentation as described in Example 41.
(§4) Isolated proteins that bound to specific ligands were identified using peptide mass fingerprinting. Mass spectra were recorded on a Bruker Reflex m MALDI time-of-flight mass spectrometer (Bruker-Daltonics, Bremen, Germany) operated in the positive reflectron mode using delayed extraction. Measurements were performed using the following parameters: Power 83-84 V; lens 7.300. The sum of 200-300 shots was used for each spectrum.
(§5) The spectra were calibrated using bradykinin peptide. In some cases, internal mass calibration was performed using a porcine trypsin autolysis product Peptide masses were searched against peptide mass maps in the National Center for Biotechnology Information (NCBI) database using the following search engines found on the world wide web (www.) for each of: • MS-FIT (prospector.ucsf.edu/ucsfhtml/msfit.htm), • Profound (129.85.19.192/profound_biniWebProFound.exe), and • MASCOT (matrixscience.com).
(§6) A search was performed using the NCBI bacterial (E. coli) database and the mammalian databases for the isolated proteins from the E. coli and myocyte samples, respectively, and the Swiss Prot mammalian databases and the Swiss Prot viral databases were searched to identify the porcine macrophage proteins and proteins, respectively. A molecular mass range was estimated from 0-250 K Da, allowing a mass accuracy that varied from 0.1 Da (some cases 0.3 Da) for each peptide mass. A large pI range from 0-14 or 0-12 was considered for each search. If no proteins matched, the mass window was extended. Partial enzyme cleavages allowing for two missed cleavage sites and modification of cysteine by alkylation were considered in the search approaches. A protein was considered identified if the matched peptides covered at least 30% of the complete sequence. […]

[4] = test system: porcine reproductive and respiratory virus infected macrophage proteins; assay: as above; format: binding; details: Virus-infected Macrophages, (V) indicates virus proteins
Source text: as §1, §2, §3, §4, §5, §6

[5] = hypertrophied myocytes (treated with serum to induce a hypertrophic state)

In the case of Pya-Gua-Abi-Asp-Abi-Tyr, the “Identified Protein(s)” value [1] is reported as “SPTR (gi 20869775) (M); Ribosomal proteins (60s) (gi and 20875941/6677773); (Calcium channel (gi 3202010) (M): and Slo channel protein isoform (gi 3644046) (M); Potassium and conductance calcium activated channel (gi 6754436 and NP_034740) (M);; Regulator of G-protein signalling 8 and (gi 9507049)”, the “extent of DNA synthesis” value [2, 5] is reported as “reduced the extent of DNA synthesis” and the “extent of DNA synthesis” value ([2]; normal myocytes) is reported as “reduced the extent of DNA synthesis”.
For `O=C(O)[C@@H]1CCCN1C(=O)c1ccc(-c2ccco2)o1`, the “Identified Protein(s)” value [3] was “Salt inducible kinase 2 (27529963); PVHL-ubiqquitin interacting enzyme 2 (23208620); Similar to glyceral- dehyde-3-phosphate dehydrogenase (gi27686413)”.
`COc1ccc(OC)c(-c2ccc(C(=O)N[C@@H](Cc3ccc(OC)c(OC)c3)C(=O)O)o2)c1` was tested, and the “Identified Protein(s)” value [4] was “Carbohydrate (chondroitin synthase 2) (28466981); Glucosidase II alpha-subunit (gi5452936); Similar to chromosome 9 reading frame 24 (gi29437020) (V) Envelope glycoprotein C2V3 region (gi3925092); Envelope glycoprotein (gi15705767)”.
For `COc1ccccc1-c1ccc(C(=O)NCC(=O)O)o1`, the “Identified Protein(s)” value [3] was “Salt inducible kinase 2 (27529963); PVHL-ubiqquitin interacting enzyme 2 (23208620); Similar to glyceral- dehyde-3-phosphate dehydrogenase (gi27686413)”.
In the case of Phe-Gua-Pal-Tyr-Gua-Tyr, the “Identified Protein(s)” value [1] is reported as “Glucose-6-Phosphatase (gi 6679893/15488608); Succinate; also recorded: dehydrogenase; ARL-interacting protein (gi 4927202); also recorded: (M); SPTR (gi 12834839) (M), Nucleic acid binding”, the “extent of DNA synthesis” value [2, 5] is reported as “reduced the extent of DNA synthesis” and the “extent of DNA synthesis” value ([2]; normal myocytes) is reported as “reduced the extent of DNA synthesis”.
For `COc1ccc(-c2ccc(C(=O)O)cc2)c(OC)c1C(=O)N[C@@H](Cc1c[nH]cn1)C(=O)O`, the “Identified Protein(s)” value [4] was “Carbohydrate (chondroitin synthase 2) (28466981); Glucosidase II alpha-subunit (gi5452936); Similar to chromosome 9 reading frame 24 (gi29437020) (V) Envelope glycoprotein C2V3 region (gi3925092); Envelope glycoprotein (gi15705767)”.
For `Cc1ccc(-c2csc(C(=O)NCC(=O)O)c2)cc1`, the “Identified Protein(s)” value [3] was “Salt inducible kinase 2 (27529963); PVHL-ubiqquitin interacting enzyme 2 (23208620); Similar to glyceral- dehyde-3-phosphate dehydrogenase (gi27686413)”.
For `COc1ccc(-c2ccc(C(=O)NCC(=O)O)o2)cc1`, the “Identified Protein(s)” value [3] was “Salt inducible kinase 2 (27529963); PVHL-ubiqquitin interacting enzyme 2 (23208620); Similar to glyceral- dehyde-3-phosphate dehydrogenase (gi27686413)”.
With `CC(O)[C@H](NC(=O)c1cc(-c2ccco2)cs1)C(=O)O` (some centres unmarked) the “Identified Protein(s)” value [4] was “Unnamed protein product (26336134); Seri- ne/threonine kinase 9/cylin dependent Serine/threonine kinase 9(23271297/4507281); Caveolin 1(gi 4972627/AAD347221) (V) Envelope glycoprotein (gi 3832399)”.
For `COc1ccc(OC)c(-c2ccc(OC)c(C(=O)N[C@@H](Cc3c[nH]cn3)C(=O)O)c2OC)c1`, the “Identified Protein(s)” value [4] was “Carbohydrate (chondroitin synthase 2) (28466981); Glucosidase II alpha-subunit (gi5452936); Similar to chromosome 9 reading frame 24 (gi29437020) (V) Envelope glycoprotein C2V3 region (gi3925092); Envelope glycoprotein (gi15705767)”.
For `COc1ccc(C[C@H](NC(=O)c2ccc(-c3ccc(C(=O)O)cc3)o2)C(=O)O)cc1OC`, the “Identified Protein(s)” value [4] was “Carbohydrate (chondroitin synthase 2) (28466981); Glucosidase II alpha-subunit (gi5452936); Similar to chromosome 9 reading frame 24 (gi29437020) (V) Envelope glycoprotein C2V3 region (gi3925092); Envelope glycoprotein (gi15705767)”.
For Phe-Abi-Pal-Hyp-Thr-Hyp, the “Identified Protein(s)” value [1] was “Zinc finger associated protein gi 20304091; Ribosomal; also recorded: proteins 40S L series (gi 206736/133023);”.
In the case of `NC[C@H](NC(=O)c1cccc(-c2ccco2)n1)C(=O)O`, the “Identified Protein(s)” value [3] is reported as “Salt inducible kinase 2 (27529963); PVHL-ubiqquitin interacting enzyme 2 (23208620); Similar to glyceral- dehyde-3-phosphate dehydrogenase (gi27686413)”.
For Abi-Thr-Hyp-Hyp-His-, the “Identified Protein(s)” value [1] was “Phosphofructokinase (gi 7331123); Selenium binding pro-; also recorded: tein (gi 8848341/6677907); (Serine arginine rich pro-; also recorded: tein kinase (LA); Guanylate kinase (gi 20986250) (LA),; also recorded: (M); SPTR (gi 12842823) (M, Actin interacting protein”, the “extent of DNA synthesis” value [2, 5] was “reduced the extent of DNA synthesis” and the “extent of DNA synthesis” value ([2]; normal myocytes) was “reduced the extent of DNA synthesis”.
